Measurements published in patent publication US11083707B2, “Substituted indoline derivatives as dengue viral replication inhibitors” (JANSSEN PHARMACEUTICALS, INC., priority 2017, dated 2021).
Like-named read-outs stand apart in the source and are kept apart here.

What was measured:
DENV-2 16681 strain = assay: DENV-2 antiviral assay (eGFP fluorescence, Vero cells); type: cell-based, Dengue virus; details: DENV-2 16681 eGFP, MOI 0.5, 3 days
Protocol: The antiviral activity of all the compounds of the invention was tested against the DENV-2 16681 strain which was labeled with enhanced green fluorescent protein (eGPF). The culture medium consists of minimal essential medium supplemented with 2% of heat-inactivated fetal calf serum, 0.04% gentamycin (50 mg/mL) and 2 mM of L-glutamine. Vero cells, obtained from ECACC, were suspended in culture medium and 25 μL was added to 384-well plates (2500 cells/well), which already contain the antiviral compounds. Typically, these plates contain a 5-fold serial dilution of 9 dilution steps of the test compound at 200 times the final concentration in 100% DMSO (200 nL). […] Finally, each plate contains wells which are assigned as virus controls (containing cells and virus in the absence of compound), cell controls (containing cells in the absence of virus and compound) and medium controls (containing medium in the absence of cells, virus and compounds). To the wells assigned as medium control, 25 μL of culture medium was added instead of Vero cells. Once the cells were added to the plates, the plates were incubated for 30 minutes at room temperature to allow the cells to distribute evenly within the wells. Next, the plates were incubated in a fully humidified incubator (37° C., 5% CO2) until the next day. Then, DENV-2 strain 16681, labeled with eGFP, was added at a multiplicity of infection (MOI) of 0.5. Therefore, 15 μL of virus suspension was added to all the wells containing test compound and to the wells assigned as virus control. In parallel, 15 μL of culture medium was added to the medium and cell controls. Next, the plates were incubated for 3 days in a fully humidified incubator (37° C., 5% CO2). At the day of the read out, the eGFP fluorescence was measured using an automated fluorescence microscope at 488 nm (blue laser). Using an in-house LIMS system, inhibition dose response curves for each compound were calculated and the half maximal effective concentration (EC50) was determined. Therefore, the percent inhibition (I) for every test concentration is calculated using the following formula: I=100*(ST-SCC)/(SVC-SCC), ST, SCC and SVC are the amount of eGFP signal in the test compound, cell control and virus control wells, respectively. The EC50 represents the concentration of a compound at which the virus replication is inhibited with 50%, as measured by a 50% reduction of the eGFP fluorescent intensity compared to the virus control. The EC50 is calculated using linear interpolation (Table 1).

DENV-1 strain TC974#666 = assay: Tetravalent RT-qPCR assay Protocol A, serotype 1; type: cell-based; details: Dengue virus, DENV1, 72 h; RT-qPCR serotype 1 TC974#666, Vero cells, day 3
Protocol: (§1) The antiviral activity of the compounds of the invention was tested against DENV-1 strain TC974#666 (NCPV), DENV-2 strain 16681, DENV-3 strain H87 (NCPV) and DENV-4 strain H241 (NCPV) in a RT-qPCR assay. Therefore, Vero cells were infected with either DENV-1, or -2, or -3, or -4 in the presence or absence of test compounds. At day 3 post-infection, the cells were lysed and cell lysates were used to prepare cDNA of both a viral target (the 3′UTR of DENV; Table 2) and a cellular reference gene (β-actin, Table 2). Subsequently, a duplex real time PCR was performed on a Lightcycler480 instrument. The generated Cp value is inversely proportional to the amount of RNA expression of these targets. Inhibition of DENV replication by a test compound results in a shift of Cp's for the 3′UTR gene. On the other hand, if a test compound is toxic to the cells, a similar effect on β-actin expression will be observed. The comparative ΔΔCp method is used to calculate EC50, which is based on the relative gene expression of the target gene (3′UTR) normalized with the cellular housekeeping gene (β-actin). In addition, CC50 values are determined based on the Cp values acquired for the housekeeping gene β-actin.
(§2) The culture medium consisted of minimal essential medium supplemented with 2% of heat-inactivated fetal calf serum, 0.04% gentamycin (50 mg/mL) and 2 mM of L-glutamine. Vero cells, obtained from ECACC, were suspended in culture medium and 75 μL/well was added in 96-well plates (10000 cells/well), which already contain the antiviral compounds. […] In addition, each plate contains wells which are assigned as virus controls (containing cells and virus in the absence of compound) and cell controls (containing cells in the absence of virus and compound). Once the cells were added in the plates, the plates were incubated in a fully humidified incubator (37° C., 5% CO2) until the next day. Dengue viruses serotype-1, 2, 3 and 4 were diluted in order to obtain a Cp of ˜22-24 in the assay. Therefore, 25 μL of virus suspension was added to all the wells containing test compound and to the wells assigned as virus control. In parallel, 25 μL of culture medium was added to the cell controls. Next, the plates were incubated for 3 days in a fully humidified incubator (37° C., 5% CO2). After 3 days, the supernatant was removed from the wells and the cells were washed twice with ice-cold PBS (˜100 μL). The cell pellets within the 96-well plates were stored at −80° C. for at least 1 day. Next, RNA was extracted using the Cells-to-CT™ lysis kit, according to the manufacturer's guideline (Life Technologies). The cell lysates can be stored at −80° C. or immediately used in the reverse transcription step.
(§3) In preparation of the reverse transcription step, mix A (table 3A) was prepared and 7.57 μL/well was dispensed in a 96-well plate. After addition of 5 μL of the cell lysates, a five minute denaturation step at 75° C. was performed (table 3B). Afterwards, 7.43 μL of mix B was added (table 3C) and the reverse transcription step was initiated (table 3D) to generate cDNA.
(§4) Finally, a RT-qPCR mix was prepared, mix C (table 4A), and 22.02 μL/well was dispensed in 96-well LightCycler qPCR plates to which 3 μL of cDNA was added and the qPCR was performed according to the conditions in table 4B on a LightCycler 480.
(§5) Using the LightCycler software and an in-house LIMS system, dose response curves for each compound were calculated and the half maximal effective concentration (EC50) and the half maximal cytotoxic concentration (CC50) were determined (Tables 5-8).

Vero cells = details: African green monkey
DENV-2 strain 16681 = assay: Tetravalent RT-qPCR assay Protocol A, serotype 2; type: cell-based; details: Dengue virus
Protocol: as §1, §2, §3, §4, §5

DENV-3 strain H87 = assay: Tetravalent RT-qPCR assay Protocol A, serotype 3; type: cell-based; details: Dengue virus, DENV3, 72 h; RT-qPCR serotype 3 H87, Vero cells, day 3
Protocol: as §1, §2, §3, §4, §5

DENV-4 strain H241 = assay: Tetravalent RT-qPCR assay Protocol A, serotype 4; type: cell-based; details: Dengue virus, DENV4, 72 h; RT-qPCR serotype 4 H241, Vero cells, day 3
Protocol: as §1, §2, §3, §4, §5

in vitro [1] = details: African green monkey
in vitro [2] = type: cell-based; details: African green monkey
Protocol: as §1, §2, §3, §4, §5

[3] = DENV2, 72 h, RT-qPCR serotype 2 16681, Vero cells, day 3, read-out: EC50

Row | Structure (SMILES) | EC50 (DENV-2 16681 strain) | EC50 (DENV-1 strain TC974#666) | CC50 (Vero cells) | EC50 (DENV-2 strain 16681; DENV2, Vero, 72 h) | EC50 (DENV-3 strain H87) | EC50 (DENV-4 strain H241) | EC50 (DENV-2 strain 16681; [3]) | CC50 (in vitro [1]) | CC50 at 3 days (in vitro [2])
1 | COc1cc(NC(C(=O)N2CCc3cc(F)c(OC(F)(F)F)cc32)c2ccc(Cl)cc2OCCCC(=O)O)cc(-n2cncn2)c1 (single isomer, unassigned) [Compound 15B] | 0.13 nM | 0.13 nM | 11000 nM | 0.1 nM | 2.8 nM | 15 nM | – | – | –
2 | COc1cc(NC(C(=O)N2CCc3cc(OC)c(C(F)(F)F)cc32)c2ccc(Cl)cc2OCCCC(=O)O)cc(-n2cncn2)c1 (single isomer, unassigned) [Compound 12A] | 1.2 nM | 2.1 nM | – | – | 36 nM | 100 nM | 0.42 nM | 13000 nM | –
3 | COc1cc(NC(C(=O)N2CCc3ccc(OC(F)(F)F)cc32)c2ccc(Cl)cc2OCCO)cc(-n2cncn2)c1 (single isomer, unassigned) [Compound 6B] | 92 nM | – | 7300 nM | – | – | – | – | – | –
4 | COc1cc(NC(C(=O)N2CCc3ccc(C(F)(F)F)cc32)c2ccc(F)cc2OCCO)cc(-n2cncn2)c1 (single isomer, unassigned) [Compound 1B] | 2.8 nM | 1.5 nM | 9800 nM | – | 25 nM | 180 nM | 2.4 nM | – | > 2500 nM
5 | COc1cc(NC(C(=O)N2CCc3cc(F)c(OC(F)(F)F)cc32)c2ccc(Cl)cc2OCCO)cc(-n2cncn2)c1 (single isomer, unassigned) [Compound 9A] | 250 nM | – | 4200 nM | – | – | – | – | – | –
6 | COc1cc(NC(C(=O)N2CCc3ccc(C(F)(F)F)cc32)c2ccc(Cl)cc2OCCO)cc(-n2cncn2)c1 (single isomer, unassigned) [Compound 4B] | 1 nM | 0.57 nM | 11000 nM | – | 11 nM | 76 nM | 0.45 nM | – | > 2500 nM
7 | COc1cc(NC(C(=O)N2CCc3cc(OC)c(C(F)(F)F)cc32)c2ccc(Cl)cc2OCCO)cc(-n2cncn2)c1 (single isomer, unassigned) [Compound 5B] | 0.62 nM | 2 nM | 9200 nM | – | 15 nM | 90 nM | 0.52 nM | – | > 2500 nM
8 | COc1cc(NC(C(=O)N2CCc3ccc(OC(F)(F)F)cc32)c2ccc(Cl)cc2OCCO)cc(-n2cncn2)c1 (single isomer, unassigned) [Compound 6A] | 0.59 nM | 0.64 nM | – | – | 8.1 nM | 60 nM | 0.49 nM | 8500 nM | –
9 | COc1cc(NC(C(=O)N2CCc3cc(OC)c(C(F)(F)F)cc32)c2ccc(F)cc2OCCO)cc(-n2cncn2)c1 (single isomer, unassigned) [Compound 2B] | 1.8 nM | 6 nM | 10000 nM | – | 38 nM | 150 nM | 2.1 nM | – | > 2500 nM
10 | COc1cc(NC(C(=O)N2CCc3cc(OC)c(OC(F)(F)F)cc32)c2ccc(Cl)cc2OCCO)cc(-n2cncn2)c1 (single isomer, unassigned) [Compound 8A] | 1.5 nM | 2 nM | – | 0.38 nM | 15 nM | 56 nM | – | 12000 nM | –
11 | COc1cc(NC(C(=O)N2CCc3cc(F)c(OC(F)(F)F)cc32)c2ccc(Cl)cc2OCCO)cc(-n2cncn2)c1 (single isomer, unassigned) [Compound 9B] | 0.6 nM | 0.99 nM | 10000 nM | – | 6.4 nM | 87 nM | 0.47 nM | – | –
12 | COc1cc(NC(C(=O)N2CCc3ccc(OC(F)(F)F)cc32)c2ccc(Cl)cc2OCCCC(=O)O)cc(-n2cncn2)c1 (single isomer, unassigned) [Compound 13A] | 0.12 nM | 0.12 nM | – | – | 1.8 nM | 10 nM | 0.057 nM | 12000 nM | > 2500 nM
13 | COc1cc(NC(C(=O)N2CCc3cc(F)c(C(F)(F)F)cc32)c2ccc(Cl)cc2OCCO)cc(-n2cncn2)c1 (single isomer, unassigned) [Compound 7B] | 1.8 nM | 0.88 nM | 7600 nM | – | 13 nM | 120 nM | 1.9 nM | – | –
14 | COc1cc(NC(C(=O)N2CCc3ccc(OC(F)(F)F)cc32)c2ccc(F)cc2OCCO)cc(-n2cncn2)c1 (single isomer, unassigned) [Compound 3B] | 0.99 nM | 2.4 nM | 8700 nM | – | 23 nM | 98 nM | 1.4 nM | – | –
15 | COc1cc(NC(C(=O)N2CCc3c(C)cc(OC(F)(F)F)cc32)c2ccc(Cl)cc2OCCO)cc(-n2cncn2)c1 (single isomer, unassigned) [Compound 10B] | 0.25 nM | 0.36 nM | 11000 nM | – | 5.9 nM | 32 nM | 0.15 nM | – | –
16 | COc1cc(NC(C(=O)N2CCc3cc(OC)c(OC(F)(F)F)cc32)c2ccc(Cl)cc2OCCO)cc(-n2cncn2)c1 (single isomer, unassigned) [Compound 8B] | 250 nM | – | 12000 nM | – | – | – | – | – | –
17 | COc1cc(NC(C(=O)N2CCc3ccc(OC(F)(F)F)cc32)c2ccc(Cl)cc2OCCCC(=O)O)cc(-n2cncn2)c1 (single isomer, unassigned) [Compound 13B] | 12 nM | – | 12000 nM | – | – | – | – | – | –
